The text below walks through data of patent publication US20110137235A1, “ULTRASONIC CANCER THERAPY ACCELERATOR” (TOTO Ltd., priority 2008, published 2011).

The conditions of the data set: 20 mmol/liter acetic acid-sodium acetate buffer pH 3.6, 40° C., 25 hr.

Excerpt: The titanium oxide complex particles and the dihydroxyphenylpropionic acid obtained in Example 1 were mixed together in 1) a 20 mmol/liter acetic acid-sodium acetate buffer solution (pH=3.6), 2) a 20 mmol/liter MES buffer solution (manufactured by Dojindo; pH=6.0), and 3) a 20 mmol/liter HEPES buffer solution (manufactured by Dojindo; pH=8.1) so that the final concentration of the titanium oxide complex particles and the final concentration of the dihydroxyphenylpropionic acid in the resultant mixed solutions were 2% and 50 mmol/liter, respectively. The total volume of each of the mixed solution was adjusted to 0.8 ml.
The adjusted solutions were stirred at 40° C. for 25 hr. For each solution, an absorption spectrum was measured in an ultraviolet-visible range (200 to 600 nm) with an ultraviolet-visible spectrometer.

For the compound `O=C(O)CCc1ccc(O)c(O)c1` [dihydroxyphenylpropionic acid], the “Change in absorption spectrum versus zero hr” value is recorded as “little or no change was observed in the absorption spectrum”.
